Active and inactive are the calls of the source. No cut-off for these calls is given here.
How the values were obtained:
Mus musculus [1] = experiment: Anxiolytic activity in Mus musculus balb/cj (mouse) assessed as time spent in open arm at 2 mg/kg, ip measured after 30 min by elevated pluze maze test (reference value: 12.25 +/- 0.02 sec); type: functional; conditions: route intraperitoneal
Mus musculus [2] = experiment: Antidepressant activity in Mus musculus (mouse) assessed as decrease in immobility at 15 mg/kg, ip measured after 30 min by despair swim test; conditions: 0.5 h, read-out: INH
Rattus norvegicus [3] = experiment: Anticonvulsant activity in Rattus norvegicus Wistar albino (rat) assessed as inhibition of pentyleneterazole-induced clonic convulsion measured as onset of convulsion at 30 mg/kg, ip pretreated 30 min prior to pentylenetetrazole challenge (reference value: 48.25 +/- 0.01 sec); type: functional; conditions: route intraperitoneal
Rattus norvegicus [4] = experiment: Anticonvulsant activity in Rattus norvegicus Wistar albino (rat) assessed as reduction in pentyleneterazole-induced mortality at 30 mg/kg, ip pretreated 30 min prior to pentylenetetrazole challenge; type: functional, organism-based; design: dose 30 mg/kg
Mus musculus [5] = experiment: Anxiolytic activity in Mus musculus Swiss (mouse) assessed as time spent in light chamber at 30 mg/kg, ip measured after 30 min by light and dark model test (reference value: 130.2 +/- 0.01 sec); type: functional; conditions: route intraperitoneal
Rattus norvegicus [6] = experiment: Anticonvulsant activity in Rattus norvegicus Wistar albino (rat) assessed as duration of tonic hind limb extensor at 30 mg/kg, ip measured after 30 min by maximal electroshock-induced convulsion test (reference value: 15.71 +/- 0.01 sec); type: functional, Hindlimb; conditions: route intraperitoneal
Rattus norvegicus [7] = experiment: Anticonvulsant activity in Rattus norvegicus Wistar albino (rat) assessed as protection against maximal electroshock-induced convulsion at 30 mg/kg, ip measured after 30 min; type: functional; conditions: route intraperitoneal
Mus musculus [8] = experiment: Anxiolytic activity in Mus musculus balb/cj (mouse) assessed as preference to open arm at 30 mg/kg, ip measured after 30 min by elevated pluze maze test; type: functional; conditions: route intraperitoneal
Mus musculus [9] = experiment: Anxiolytic activity in Mus musculus balb/cj (mouse) assessed as time spent in open arm at 30 mg/kg, ip measured after 30 min by elevated pluze maze test (reference value: 12.25 +/- 0.02 sec); type: functional; conditions: route intraperitoneal
Mus musculus [10] = experiment: Antidepressant activity in Mus musculus (mouse) assessed as increase in mobile phase at 30 mg/kg, ip measured after 30 min by tail suspension test; type: functional; conditions: route intraperitoneal
Mus musculus [11] = experiment: Antidepressant activity in Mus musculus (mouse) assessed as decrease in immobility at 30 mg/kg, ip measured after 30 min by despair swim test; type: functional; conditions: 0.5 h, route intraperitoneal
Rattus norvegicus [12] = experiment: Anticonvulsant activity in Rattus norvegicus Wistar albino (rat) assessed as duration of tonic hind limb extensor at 25 mg/kg, ip measured after 30 min by maximal electroshock-induced convulsion test; type: functional, organism-based; design: dose 25 mg/kg; conditions: Hindlimb
Rattus norvegicus [13] = experiment: Anticonvulsant activity in Rattus norvegicus Wistar albino (rat) assessed as protection against maximal electroshock-induced convulsion at 25 mg/kg, ip measured after 30 min; type: functional; conditions: route intraperitoneal
Rattus norvegicus [14] = experiment: Anticonvulsant activity in Rattus norvegicus Wistar albino (rat) assessed as reduction in pentyleneterazole-induced mortality at 4 mg/kg, ip pretreated 30 min prior to pentylenetetrazole challenge; type: functional, organism-based; design: dose 4 mg/kg

SMILES | Time (Mus musculus [1]) [s] | inhibition in vivo at 15 mg/kg (Mus musculus [2]) [%] | Time (Rattus norvegicus [3]) [s] | Activity (Rattus norvegicus [4]) | Time (Mus musculus [5]) [s] | Time (Rattus norvegicus [6]) [s] | Activity (Rattus norvegicus [7]) [%] | Activity (Mus musculus [8]) [%] | Time (Mus musculus [9]) [s] | Activity (Mus musculus [10]) [%] | inhibition in vivo at 30 mg/kg (Mus musculus [11]) [%] | Activity (Rattus norvegicus [12]) | Activity (Rattus norvegicus [13]) [%] | Activity (Rattus norvegicus [14])
CNCCC(Oc1ccc(C(F)(F)F)cc1)c1ccccc1.Cl (stereo not drawn) [FLUOXETINE HYDROCHLORIDE] | 60.01 | 58.6 | – | – | – | – | – | – | – | – | – | – | – | –
O=S(=O)(Cl)c1ccc(Sc2nnc(Nc3ccc(C(F)(F)F)cc3)s2)cc1 | – | – | 180.25 | Active | 192 | 4.42 | 66.66 | 18.92 | 47.92 | 45.97 | 53.5 | – | – | –
O=C1NC(=O)C(c2ccccc2)(c2ccccc2)N1 [PHENYTOIN] | – | – | – | – | – | – | – | – | – | – | – | Active | 100 | –
NS(=O)(=O)c1ccc(Sc2nnc(Nc3ccc(Cl)cc3)s2)cc1 | – | – | 151.3 | Active | 178.2 | 5.17 | 50 | 16.35 | 45.51 | 33.33 | 29.2 | – | – | –
Cc1ccc(Nc2nnc(Sc3ccc(S(N)(=O)=O)cc3)s2)cc1 | – | – | 170.26 | Active | 190.25 | 4.52 | 50 | 18.25 | 45.69 | 42.21 | 51.5 | – | – | –
O=S(=O)(Cl)c1ccc(Sc2nnc(Nc3ccc(Br)cc3)s2)cc1 | – | – | 70.25 | Active | 159.3 | 7.63 | 0 | 9.25 | 25.2 | 20.57 | 30.7 | – | – | –
O=S(=O)(Cl)c1ccc(Sc2nnc(Nc3ccc(F)cc3)s2)cc1 | – | – | 101.26 | Active | 166.3 | 8.25 | 0 | 10.54 | 25.26 | 21.51 | 22.8 | – | – | –
O=S(=O)(Cl)c1ccc(Nc2nnc(Sc3ccc(S(=O)(=O)Cl)cc3)s2)cc1 | – | – | 125.2 | Active | 172.5 | 8.5 | 0 | 7.9 | 27.63 | 10.09 | 25.9 | – | – | –
CN1C(=O)CN=C(c2ccccc2)c2cc(Cl)ccc21 | – | – | – | – | – | – | – | – | – | – | – | – | – | Active
NS(=O)(=O)c1ccc(Sc2nnc(Nc3ccc(C(F)(F)F)cc3)s2)cc1 | – | – | 126.2 | Active | 151.26 | 7.37 | 33.33 | 8.92 | 23.72 | 31.29 | 27.9 | – | – | –
O=S(=O)(Cl)c1ccc(Sc2nnc(Nc3ccc(Cl)cc3)s2)cc1 | – | – | 63.6 | Active | 151.5 | 7.55 | 16.66 | 9.75 | 30.01 | 15.68 | 23.9 | – | – | –
NS(=O)(=O)c1ccc(Nc2nnc(Sc3ccc(S(N)(=O)=O)cc3)s2)cc1 | – | – | – | – | 133.2 | 8.25 | 0 | 6.65 | 26.64 | 10.06 | 25.2 | – | – | –
NS(=O)(=O)c1ccc(Sc2nnc(Nc3ccc(Br)cc3)s2)cc1 | – | – | 71.9 | Active | 162.3 | 8.01 | 33.33 | 8.01 | 29.26 | 15.68 | 27.2 | – | – | –
Cc1ccc(Nc2nnc(Sc3ccc(S(=O)(=O)Cl)cc3)s2)cc1 | – | – | 101.26 | Active | 169.25 | 8.01 | 16.66 | 7.58 | 22.2 | 15.19 | 29.2 | – | – | –
O=S(=O)(Cl)c1ccc(Sc2nnc(Nc3ccc(C(Cl)(Cl)Cl)cc3)s2)cc1 | – | – | 99.9 | Active | 170.5 | 7.01 | 16.66 | 8.75 | 26.2 | 19.16 | 30.2 | – | – | –
NS(=O)(=O)c1ccc(Sc2nnc(Nc3ccc(C(Cl)(Cl)Cl)cc3)s2)cc1 | – | – | 106.7 | Active | 162 | 6.96 | 16.66 | 7.85 | 24.2 | 16.39 | 25 | – | – | –
NS(=O)(=O)c1ccc(Sc2nnc(Nc3ccc(S(=O)(=O)Cl)cc3)s2)cc1 | – | – | 175.2 | Active | 180.25 | 4.69 | 50 | 17.2 | 45.93 | 40.58 | 50.4 | – | – | –
NS(=O)(=O)c1ccc(Sc2nnc(Nc3ccc(F)cc3)s2)cc1 | – | – | 171.25 | Active | 185.9 | 4.5 | 66.66 | 18.01 | 46.31 | 40.31 | 50.5 | – | – | –
